“And” between values parts separate entries of the source, which are not always exact repeats. Identical values can stand only once. Like-named read-outs stand apart in the source and are kept apart here.

Data set [1] concerns the target T1, eqBChE (BChE from equine serum) (Equus caballus, UniProt P81908).
T1 construct: BChE from equine serum (eqBChE); purchased Sigma-Aldrich (St. Louis, MO, USA); host or cells: equine serum
The experiment in a line: biochemical. Here is the method:
(§1) Acetylcholinesterase and butyrylcholinesterase inhibitory activities of the compounds under study were evaluated spectrophotometrically following Ellman’s method using AChE from electrophorus electricus (eeAChE) and BChE from equine serum (eqBChE). The lyophilized enzymes were dissolved in sodium phosphate buffer (0.25 M, pH 7.4) to make a stock solution of eeAChE (1000 U/mL) or eqBChE (25 U/mL). […] Briefly, in each well, 100 μL of phosphate buffer, 40 μL of DTNB, 20 μL of the tested compounds (100 µM solution dissolved in 0.1% DMSO and phosphate buffer) and 20 μL of cholinesterase solution were pre-incubated in a 96-well microplate for 5 min at 30 °C. […] The rate of the reaction before adding the enzyme was subtracted from that obtained after enzyme addition in order to correct for spontaneous hydrolysis of substrate.

The target in data set [2] is T2, eeAChE (AChE from electrophorus electricus) (Electrophorus electricus, UniProt O42275).
T2 construct: purchased Sigma-Aldrich (St. Louis, MO, USA)
The experiment in a line: biochemical. The data set is classed as biochemical. The conditions noted are these: for IC50: Ellman's method, ATCI substrate, 30 °C; for fold enhancement of eeAChE inhibitory activity: 10 carbon linker compound compared to 6 carbon linker analogue (compounds 3 and 4). The procedure: as §1

A short description of data set [3]: Chemical stability observation. It counts as physicochemical. From the text: Accordingly, these two compounds were selected for the study as protective agents against glutamate, iron(III) and Aβ42.
The subject of data set [4] is differentiated SH-SY5Y cells. The experiment in a line: Neuroprotection against Aβ42, MTT reduction. It counts as cell-based, human. The conditions noted are these: mean ± SD; for MTT reduction: 30 min pre-treatment, then Aβ42 25 µM 24 h; for MTT reduction, aggressor alone: Aβ42 25 µM, 24 h. The procedure:
(§2) After 30 min of pre-treatment with Compounds 7 (10 and 50 µM) and 11 (10 µM), the cells were exposed to different aggressors, described above, for 24 h.
(§3) Figure 6 Evaluation of the protective effects of Compounds 7 (10 and 50 µM) and 11 (10 µM) in SH-SY5Y cells against glutamate (16 mM, A), iron(III) (1 mM, B) and Aβ42 (25 µM, C) as oxidative stress inducers. The cells were pre-treated with antioxidants for 30 min and exposed to the aggressors for 24 h. The data are expressed as the means of three independent experiments together with the standard deviation (Mean ± SD). Statistical comparisons were estimated using the nonparametric method of Kruskal–Wallis [one-way ANOVA on ranks] followed by Dunn’s post hoc test (A,B) and using the parametric method of one-way analysis of variance (ANOVA) followed by Dunnett’s multiple comparison test (C, F = 364.2) (Supplementary Table S2). In all cases, p values lower than 0.05 were considered significant (^## p < 0.05, ^#### p < 0.0001 vs. control data; ** p < 0.01, *** p < 0.001, **** p < 0.0001 vs. aggressor values).
(§4) Differentiated human neuroblastoma cells were routinely cultured into […] flasks and maintained in DMEM high glucose (4.5 g/L glucose), supplemented with 10% heat-inactivated FBS (v/v), 1% NEAA (v/v) and 1% penicillin/streptomycin (v/v). The cell cultures were maintained at 37 °C in a humidified 5% CO2–95% air atmosphere and passaged once a week by trypsinization (0.25% trypsin). Neuroblastoma SH-SY5Y cells were seeded onto 96 well plates at a density of 25,000 cells/cm^2 in cell culture medium with trans-retinoic acid (RA, final concentration of 10 µM) and incubated for three days at 37 °C in a humidified, 5% CO2–95% air atmosphere. Then, the medium was supplemented with 12-O-tetradecanoylphorbol-13-acetate (TPA, final concentration of 80 nM), and cells were incubated for three days. Stock solutions of RA (10 mM) and TPA (160 µM) were prepared in DMSO. To avoid phenotypic changes, the cells used for all experiments were taken between the 19th and 28th passages.
(§5) The neuroprotective efficacy of mitochondriotropic antioxidants 7 and 11 was evaluated in a cell-based assay against diverse oxidative stress inducers. Briefly, SH-SY5Y cells were pre-treated with Compounds 7 and 11 followed by incubation with the well-described aggressors that play a role in AD progression, namely Aβ-amyloid 1-42 (Aβ42), ferric nitrilotriacetate (FeNTA) and glutamic acid. Differentiated SH-SY5Y cells were pre-treated with the test compounds 7 (10 and 50 µM) and 11 (10 µM) for 30 min. Then, a culture medium containing Aβ42 (25 µM), iron(III) (1 mM) or glutamic acid (16 mM) was added, and cells were incubated for additional 24 h. A negative control (cells treated with culture medium containing DMSO 0.1%) and a positive control (cells treated with culture medium containing DMSO 0.1%, followed by treatment with aggressors) were also included. Cell viability was estimated using the MTT reduction assay, as described by Fernandes et al..

In data set [5] the test system is differentiated SH-SY5Y cells. Nature of the data set: Neuroprotection against glutamate, MTT reduction. It counts as cell-based, human. The conditions noted are these: mean ± SD; for MTT reduction: 30 min pre-treatment, then glutamate 16 mM 24 h; for MTT reduction, aggressor alone: glutamate 16 mM, 24 h. Here is the method:
as §2, §3, §4, §5

Data set [6] relates to differentiated SH-SY5Y cells. Nature of the data set: Neuroprotection against iron(III), MTT reduction. To be noted: mean ± SD; for MTT reduction: 30 min pre-treatment, then iron(III) 1 mM 24 h; for MTT reduction, aggressor alone: iron(III) 1 mM, 24 h. The data set is classed as cell-based, human. The procedure:
as §2, §3, §4, §5

For a further data set, the system named is SH-SY5Y cells. On the set-up: method as in PMID 30784884. The conditions noted are these: at 50 µM; cited from earlier work.
[7] abbreviates: Ellman's method, BTCI substrate, 30 °C, read-out: IC50 eqBChE, mean (CI 95%).
[8] abbreviates: read-out: IC50 eeAChE, mean (CI 95%).

T2 sequence (O42275 24-633): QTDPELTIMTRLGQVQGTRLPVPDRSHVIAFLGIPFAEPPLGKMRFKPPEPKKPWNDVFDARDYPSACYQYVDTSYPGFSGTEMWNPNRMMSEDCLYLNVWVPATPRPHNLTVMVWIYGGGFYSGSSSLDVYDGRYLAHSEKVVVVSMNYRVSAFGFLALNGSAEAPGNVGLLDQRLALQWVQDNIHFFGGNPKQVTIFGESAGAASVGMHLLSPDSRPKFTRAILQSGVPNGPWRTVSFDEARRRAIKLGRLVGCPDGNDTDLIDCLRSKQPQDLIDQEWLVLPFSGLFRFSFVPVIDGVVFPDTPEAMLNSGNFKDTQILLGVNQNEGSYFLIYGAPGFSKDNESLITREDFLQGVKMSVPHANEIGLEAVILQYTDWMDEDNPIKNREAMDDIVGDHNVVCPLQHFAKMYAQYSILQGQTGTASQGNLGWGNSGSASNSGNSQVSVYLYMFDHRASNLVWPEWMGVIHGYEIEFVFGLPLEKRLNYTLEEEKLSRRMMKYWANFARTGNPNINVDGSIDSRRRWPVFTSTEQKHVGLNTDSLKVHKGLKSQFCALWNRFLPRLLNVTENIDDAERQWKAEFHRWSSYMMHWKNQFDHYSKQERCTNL
T1 sequence (P81908 whole entry): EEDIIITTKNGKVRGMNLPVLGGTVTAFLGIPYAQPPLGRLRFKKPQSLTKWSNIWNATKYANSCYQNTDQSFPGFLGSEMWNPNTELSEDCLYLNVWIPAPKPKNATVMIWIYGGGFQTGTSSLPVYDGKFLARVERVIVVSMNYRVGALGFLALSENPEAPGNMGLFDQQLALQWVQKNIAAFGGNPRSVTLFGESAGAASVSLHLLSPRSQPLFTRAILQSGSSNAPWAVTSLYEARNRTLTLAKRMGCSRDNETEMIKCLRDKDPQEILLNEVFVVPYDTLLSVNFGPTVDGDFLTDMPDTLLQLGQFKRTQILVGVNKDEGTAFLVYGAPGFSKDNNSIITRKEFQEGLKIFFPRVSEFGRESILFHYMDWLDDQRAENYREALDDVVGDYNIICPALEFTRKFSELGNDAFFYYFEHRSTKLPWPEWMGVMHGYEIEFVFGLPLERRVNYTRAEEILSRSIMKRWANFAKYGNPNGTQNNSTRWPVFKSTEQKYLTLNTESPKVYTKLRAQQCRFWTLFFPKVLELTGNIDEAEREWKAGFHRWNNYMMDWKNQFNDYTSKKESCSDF

Consider `O=C(/C=C/c1cc(O)c(O)c(O)c1)NCCCCCC[P+](c1ccccc1)(c1ccccc1)c1ccccc1` [Compound 1], for which the “SI: selectivity index = IC50 (eeAChE)/IC50 (eqBChE)” value (from here on “SI: selectivity index = IC50”) in data set [1] was found to be 7.2. Also, the concentration for half-maximal inhibition (IC50) turned out to be 410 nM in data set [1] (setting [7]) and 2.94 µM in data set [2] (setting [8]).
For the molecule `O=C(CCc1cc(O)c(O)c(O)c1)NCCCCCC[P+](c1ccccc1)(c1ccccc1)c1ccccc1` [Compound 2], the IC50 in data set [1] came to 3160 nM; in data set [2] (IC50 eeAChE, mean (CI 95%)) it was 6.76 µM. The “SI: selectivity index = IC50” value in data set [1] is 2.1.
For `O=C(Cc1cc(O)c(O)c(O)c1)NCCCCCC[P+](c1ccccc1)(c1ccccc1)c1ccccc1` [Compound 3], in data set [1], the midpoint of inhibition, the IC50, lay at 4520 nM and the “SI: selectivity index = IC50” value was determined as 2.0. Moreover, in data set [2] (IC50 eeAChE, mean (CI 95%)), the IC50 was 8.98 µM.
On to `O=C(/C=C/c1ccc(O)c(O)c1)NCCCCCC[P+](c1ccccc1)(c1ccccc1)c1ccccc1` [Compound 4], for which the “SI: selectivity index = IC50” value in data set [1] turned out to be 52.7. Further, the results for the IC50 in data set [1] (setting [7]) and in data set [2] (setting [8]) were 120 nM and 6.32 µM, respectively.
For the molecule `O=C(CCc1ccc(O)c(O)c1)NCCCCCC[P+](c1ccccc1)(c1ccccc1)c1ccccc1` [Compound 5], the IC50 in data set [1] worked out at 2520 nM; in data set [2] (IC50 eeAChE, mean (CI 95%)), 1.08 µM. In addition, in data set [1], the “SI: selectivity index = IC50” value was determined as 0.4. In addition, the chemical stability result in data set [3] is “showed chemical instability”.
In the case of `O=C(Cc1ccc(O)c(O)c1)NCCCCCC[P+](c1ccccc1)(c1ccccc1)c1ccccc1` [Compound 6], in data set [1], the IC50 was found to be 930 nM and the “SI: selectivity index = IC50” value worked out at 4.2. In data set [2] (IC50 eeAChE, mean (CI 95%)), the IC50 is 3.88 µM.
Consider `O=C(/C=C/c1cc(O)c(O)c(O)c1)NCCCCCCCCCC[P+](c1ccccc1)(c1ccccc1)c1ccccc1` [Compound 7], for which the MTT reduction was 72.55 ± 2.67 % ctrl in data set [4] (compound 10 µM); 68.81 ± 0.70 % ctrl and 68.1 % ctrl in data set [4] (compound 50 µM); 84.24 ± 5.32 % ctrl in data set [5] (compound 10 µM); 81.90 ± 2.81 % ctrl and 81.9 % ctrl in data set [5] (compound 50 µM); 75.90 ± 5.25 % ctrl in data set [6] (compound 10 µM); 80.22 ± 12.76 % ctrl and 80.2 % ctrl in data set [6] (compound 50 µM). In data set [1], the “SI: selectivity index = IC50” value was 30.8. Moreover, the values for the 50% inhibitory concentration (IC50) in data set [1] (setting [7]) and in data set [2] (setting [8]) were 110 nM and 3.39 µM, respectively.
On to `O=C(CCc1cc(O)c(O)c(O)c1)NCCCCCCCCCC[P+](c1ccccc1)(c1ccccc1)c1ccccc1` [Compound 8], for which, in data set [1], 800 nM corresponded to half-maximal inhibition (IC50) and the “SI: selectivity index = IC50” value was determined as 7.2. The half-inhibitory concentration (IC50) in data set [2] (IC50 eeAChE, mean (CI 95%)) came out at 5.75 µM.
Take `O=C(Cc1cc(O)c(O)c(O)c1)NCCCCCCCCCC[P+](c1ccccc1)(c1ccccc1)c1ccccc1` [Compound 9]: the IC50 in data set [1] is 530 nM; in data set [2] (IC50 eeAChE, mean (CI 95%)) it was 3.35 µM. Besides, the “fold enhancement of eeAChE inhibitory activity” value in data set [2] was 3 fold.
`O=C(/C=C/c1ccc(O)c(O)c1)NCCCCCCCCCC[P+](c1ccccc1)(c1ccccc1)c1ccccc1` [Compound 10]: the “SI: selectivity index = IC50” value in data set [1] is reported as 23.9. For the same molecule, the IC50 in data set [1] (setting [7]) was 150 nM; in data set [2] (setting [8]), 3.59 µM. In data set [2], the “fold enhancement of eeAChE inhibitory activity” value is listed as 2 fold.
Regarding `O=C(CCc1ccc(O)c(O)c1)NCCCCCCCCCC[P+](c1ccccc1)(c1ccccc1)c1ccccc1` [Compound 11], the MTT reduction in data set [4] (compound 10 µM) is 66.43 ± 3.45 % ctrl and 66.4 % ctrl; in data set [5] (compound 10 µM) it was 74.97 ± 6.87 % ctrl; in data set [6] (compound 10 µM), 82.87 ± 7.87 % ctrl and 82.9 % ctrl. Further, in data set [1], the “SI: selectivity index = IC50” value is listed as 4.9. Besides, the concentration for half-maximal inhibition (IC50) is 320 nM in data set [1] (setting [7]) and 1.59 µM in data set [2] (setting [8]). The cytotoxicity result in the data set on SH-SY5Y cells is recorded as “presented cytotoxicity”.
On to `O=C(Cc1ccc(O)c(O)c1)NCCCCCCCCCC[P+](c1ccccc1)(c1ccccc1)c1ccccc1` [Compound 12], for which, in data set [1], the IC50 is 240 nM and the “SI: selectivity index = IC50” value was found to be 10.2. In data set [2] (IC50 eeAChE, mean (CI 95%)), this molecule yielded an IC50 of 2.44 µM.
Turning to `N[C@@H](CCC(=O)O)C(=O)O` [Glutamate, L-glutamic acid, reference compound], the “MTT reduction, aggressor alone” value in data set [5] is recorded as 72.68 ± 2.81 % ctrl; in data set [5] (listed as glutamate), “about 72.7 % ctrl”.
With `O=C([O-])CN(CC(=O)[O-])CC(=O)[O-].[Fe+3]` [Iron(III), ferric nitrilotriacetate, reference compound], the “MTT reduction, aggressor alone” value in data set [6] was 63.06 ± 6.25 % ctrl; in data set [6] (listed as iron(III)) it was about 63.1 % ctrl.
On to Aβ-amyloid (1–42) [reference compound], for which the entries for the “MTT reduction, aggressor alone” value in data set [4] and in data set [4] (listed as Aβ42) were 58.73 ± 2.76 % ctrl and about 58.7 % ctrl, respectively.

(Values after paper PMC7024345 (Molecules, 2020).)
